Data published in ChEMBL document CHEMBL1201862, “PubChem BioAssay data set” (2004).
Active and inactive are the calls of the source.

Experiments:
[1] = target: T1, Type-1 angiotensin II receptor (Homo sapiens, UniProt P30556); test: agonist activity at AGTR1 – cell-based, uHTS hits, selectivity assay for APJ receptor agonist project, dose response (AID 488865); format: functional;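 note: beta-arrestin recruitment to AT1 measured by enzyme fragment complementation luminescence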
T1 sequence (P30556 whole entry): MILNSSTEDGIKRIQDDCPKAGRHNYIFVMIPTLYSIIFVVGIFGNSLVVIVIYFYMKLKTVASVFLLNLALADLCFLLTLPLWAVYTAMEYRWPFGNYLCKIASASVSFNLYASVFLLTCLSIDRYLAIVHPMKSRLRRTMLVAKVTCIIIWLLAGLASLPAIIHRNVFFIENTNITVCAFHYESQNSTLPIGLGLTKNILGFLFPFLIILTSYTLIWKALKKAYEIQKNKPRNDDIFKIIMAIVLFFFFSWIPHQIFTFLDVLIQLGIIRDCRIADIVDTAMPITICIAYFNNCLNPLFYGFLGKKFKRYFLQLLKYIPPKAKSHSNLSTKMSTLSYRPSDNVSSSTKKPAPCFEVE

[2] = tested on: H9c2; test: cells; format: functional, cell-based; details: Rattus norvegicus, H9c2, Myocardium;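 note: confirmatory concentration-response retest of ultra-high-throughput screening hits for modulation of myocardial damage; cell death induced by hydrogen peroxide oxidative stress; compound pretreatment for 60 min then peroxide exposure for 2 h; potency is for protecting the cells against peroxide damage rather than for killing them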
[3] = viability of uninfected HEp-2 cells – cell-based, HTS, cytotoxicity control for RSV inhibitor project, dose response (AID 2410); format: functional; details: human respiratory syncytial virus
[4] = target: Intestinal-type alkaline phosphatase (Mus musculus, UniProt P24822); test: PubChem AID 488875; format: functional
Intestinal-type alkaline phosphatase (Mus musculus, UniProt P24822), sequence (P24822 whole entry): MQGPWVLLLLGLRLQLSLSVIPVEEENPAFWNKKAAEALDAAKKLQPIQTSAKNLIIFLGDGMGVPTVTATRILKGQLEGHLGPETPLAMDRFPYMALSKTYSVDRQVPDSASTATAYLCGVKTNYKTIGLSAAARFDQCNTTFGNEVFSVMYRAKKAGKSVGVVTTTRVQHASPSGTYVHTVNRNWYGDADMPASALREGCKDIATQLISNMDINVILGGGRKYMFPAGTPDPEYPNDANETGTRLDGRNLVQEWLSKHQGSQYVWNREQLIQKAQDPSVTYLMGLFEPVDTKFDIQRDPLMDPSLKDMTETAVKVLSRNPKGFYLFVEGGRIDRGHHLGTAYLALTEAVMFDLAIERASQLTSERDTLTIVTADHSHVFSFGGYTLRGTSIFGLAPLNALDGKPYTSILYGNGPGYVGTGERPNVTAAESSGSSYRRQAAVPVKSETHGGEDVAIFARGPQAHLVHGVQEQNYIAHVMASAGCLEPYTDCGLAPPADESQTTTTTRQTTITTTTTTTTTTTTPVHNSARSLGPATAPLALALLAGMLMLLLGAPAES

[5] = target: T2, Intestinal-type alkaline phosphatase (Homo sapiens, UniProt P09923); test: human intestinal alkaline phosphatase activators, dose response, biochemical, luminescence, uHTS hits (AID 463120); format: functional
T2 sequence (P09923 whole entry): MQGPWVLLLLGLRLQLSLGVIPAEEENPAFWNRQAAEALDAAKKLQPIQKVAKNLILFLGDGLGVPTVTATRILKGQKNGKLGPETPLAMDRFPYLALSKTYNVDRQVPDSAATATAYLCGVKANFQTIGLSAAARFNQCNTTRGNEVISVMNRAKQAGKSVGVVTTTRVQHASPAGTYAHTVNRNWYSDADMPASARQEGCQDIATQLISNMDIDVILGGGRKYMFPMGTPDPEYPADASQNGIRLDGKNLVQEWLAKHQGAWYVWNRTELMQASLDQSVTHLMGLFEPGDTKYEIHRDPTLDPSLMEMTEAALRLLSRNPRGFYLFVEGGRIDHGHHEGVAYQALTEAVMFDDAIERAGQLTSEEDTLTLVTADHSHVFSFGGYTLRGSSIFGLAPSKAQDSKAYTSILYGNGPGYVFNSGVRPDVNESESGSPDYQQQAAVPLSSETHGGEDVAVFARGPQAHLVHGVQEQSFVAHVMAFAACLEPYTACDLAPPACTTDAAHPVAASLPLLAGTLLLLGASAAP

[6] = target: T2, Intestinal-type alkaline phosphatase; test: activation of human intestinal alkaline phosphatase – biochemical, luminescent, uHTS hits, set 2, dose response (AID 488817); format: functional;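 note: potency of activators that raise enzyme activity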
[7] = target: T3, Alkaline phosphatase, tissue-nonspecific isozyme (Homo sapiens, UniProt P05186); test: activation of tissue-nonspecific alkaline phosphatase – biochemical, TNAP isozyme, human IAP uHTS hits, selectivity assay for human IAP activator project, dose response (AID 488886); format: functional;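 note: potency of compounds raising TNAP activity as a selectivity check on IAP activators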
T3 sequence (P05186 whole entry): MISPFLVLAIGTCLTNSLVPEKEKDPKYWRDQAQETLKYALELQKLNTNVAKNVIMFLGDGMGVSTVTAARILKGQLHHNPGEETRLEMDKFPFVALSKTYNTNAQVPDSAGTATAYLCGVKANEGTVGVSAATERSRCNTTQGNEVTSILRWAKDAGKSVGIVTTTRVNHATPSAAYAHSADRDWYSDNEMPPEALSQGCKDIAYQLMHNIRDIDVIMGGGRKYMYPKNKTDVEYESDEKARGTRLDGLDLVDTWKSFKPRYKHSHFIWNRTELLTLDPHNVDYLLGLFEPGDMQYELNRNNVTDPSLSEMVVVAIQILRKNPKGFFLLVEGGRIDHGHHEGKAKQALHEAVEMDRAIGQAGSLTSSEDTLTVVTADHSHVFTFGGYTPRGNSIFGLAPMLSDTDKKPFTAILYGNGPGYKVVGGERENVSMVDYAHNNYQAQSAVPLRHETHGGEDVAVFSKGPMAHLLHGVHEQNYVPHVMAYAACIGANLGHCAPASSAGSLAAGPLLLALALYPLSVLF

[8] = target: G-protein coupled receptor 55 (Homo sapiens, UniProt Q9Y2T6); test: inhibition of LPI-stimulated GPR55 beta-arrestin translocation – imaging, U2OS, beta-arrestin-GFP, LPI agonist, primary screen (AID 2013); format: functional;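 note: antagonist potency measured as reduced agonist-driven arrestin aggregation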
G-protein coupled receptor 55, sequence (Q9Y2T6 whole entry): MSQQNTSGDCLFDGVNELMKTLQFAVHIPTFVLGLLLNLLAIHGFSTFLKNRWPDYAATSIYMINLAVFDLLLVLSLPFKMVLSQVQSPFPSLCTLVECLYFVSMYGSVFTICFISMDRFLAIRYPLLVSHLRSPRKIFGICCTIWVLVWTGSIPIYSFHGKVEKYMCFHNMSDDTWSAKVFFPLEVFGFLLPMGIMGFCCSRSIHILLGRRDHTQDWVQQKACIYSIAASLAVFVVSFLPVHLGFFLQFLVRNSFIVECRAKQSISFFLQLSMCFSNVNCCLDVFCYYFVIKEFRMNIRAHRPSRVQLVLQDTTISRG

CCOc1ccc2nc(O)c(CN(Cc3ccco3)C(CC)c3nnnn3Cc3ccccc3)cc2c1 (stereo not drawn)
EC50 [1]: > 100 µM (inactive)
IC50 [2]: > 79 µM (inactive)

COc1ccccc1CCNC(=O)C1CCN(c2nnc(C)c3c(C)n(-c4ccc(C)cc4)nc23)CC1
CC50 [3]: 17.4 µM (active)
EC50 [4]: > 100 µM (inactive)
EC50 [5]: 23.1 µM (active)
EC50 [6]: 65.5 µM (active)
EC50 [7]: 53.2 µM (active)

Nc1ncc(-c2nnnn2-c2ccc(Cl)cc2)c(-c2ccc(Cl)cc2)n1
IC50 [8]: 4.61 µM (active)
